Structures are written as SMILES. Where “and” joins values, the source holds several entries; their conditions need not be identical. Identical values can stand only once.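 Five compound concentrations were applied to cells in 96-well plates for 48 hours; endpoints were derived by simple linear interpolation of the resulting dose-response curve. GI50 = concentration required for 50% inhibition of growth. TGI denotes the concentration required for complete inhibition of growth.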

The subject of the first assay is KM12 colon. The assay can be described thus: growth of human tumour cells (NCI), 48 h.
For the compound `C[C@]12CCc3sc(Nc4ccc(OC(F)(F)F)cc4)nc3C1=CC[C@@H]1[C@@H]2CC[C@]2(C)C(=O)CC[C@@H]12`, the GI50 is 3.56 µM and the TGI was found to be 15 µM.

`CCN1C(=O)c2ccc3c4c(ccc(c24)C1=O)C(=O)N(CCCNCc1ccccc1OC)C3=O`: the GI50 is 0.63 µM and the TGI is 3.75 µM.

Take `O=C(/C=C/c1ccccc1)Nc1ncc(Cc2ccccc2Cl)s1`: the GI50 is 0.288 µM and the TGI was above 100 µM.

`CN(c1ccc(NC(=O)Nc2c(Cl)cccc2Cl)cc1)c1ccnc(Nc2cccc(CS(C)(=O)=O)c2)n1`: the GI50 is 0.104 µM and the TGI was found to be 5.12 µM.

In the case of `CCCCCCCCCCCCCCCCCCOC[C@H](COP(=O)(O)O[C@H]1[C@H](O)[C@@H](O)[C@H](O)C[C@H]1O)OC`, the GI50 is 25.9 µM and 4.67 µM; the TGI was > 100 µM and 28.1 µM.

Turning to `CN(C)C/C=C/C(=O)Nc1ccc(C(=O)N[C@@]2(C)CCC[C@@H](Nc3ncc(Cl)c(-c4c[nH]c5ccccc45)n3)C2)nc1`, the GI50 was 0.013 µM and the TGI came out at 0.194 µM.

On to `COCCOC(=O)C1=C(O)c2ccccc2S(=O)(=O)N1C`, for which the TGI was above 100 µM.

`CC(C)CNc1nc(-c2ccccc2Cl)nc2ccccc12`: the GI50 was 23.4 µM and the TGI worked out at 64.4 µM.

In turn, `CN(C)CCOc1ccc([N+](=O)[O-])c2cccnc12` came in with a TGI above 100 µM.

For the compound `C=C(C)[C@@H]1CC[C@]2(COCCCN)CC[C@]3(C)[C@H](CC[C@@H]4[C@@](C)(CCCNCCCN)[C@H](C(=C)C)CC[C@]43C)[C@@H]12`, the GI50 was 1.74 µM and the TGI stood at 3.14 µM.

On to `O=NNc1ccc2ccccc2n1`, for which the TGI was above 100 µM.

Compound `CC(C)(C)c1cc([N+](=O)[O-])cc([N+](=O)[O-])c1O` yielded a TGI above 10 µM.

Regarding `COc1ccc2c(c1)C(=O)/C(=C/c1cccc(OCC(=O)c3ccccc3)c1)O2`, the GI50 is 4.23 µM and the TGI stood at 16.1 µM.

In the case of `O=C1NC(=S)S/C1=C/c1ccc2c(c1)OCO2`, the GI50 was above 100 µM and the TGI is above 100 µM.

The compound `O=C(O)CCCc1ccc2ccc3ccccc3c2c1` yielded a TGI above 100 µM.

For `CC(=O)OC1OC([C@H]2c3cccc(O)c3C(=O)c3c(O)cc(C)cc32)C(O)C(O)C1O` (some centres not stated), the GI50 is 0.202 µM and the TGI worked out at 0.624 µM.

As to `N/N=C\c1c2ccccc2c(=O)n2c1oc1ccccc12`, the GI50 is 14.6 µM and the TGI is 27.7 µM.

The next assay has as its system MALME-3M melanoma. The assay can be described thus: growth of human tumour cells (NCI), 48 h.
Consider `C[C@]12CCc3sc(Nc4ccc(OC(F)(F)F)cc4)nc3C1=CC[C@@H]1[C@@H]2CC[C@]2(C)C(=O)CC[C@@H]12`, for which the GI50 is 3.45 µM and the TGI came to 16.8 µM.

For the compound `CCN1C(=O)c2ccc3c4c(ccc(c24)C1=O)C(=O)N(CCCNCc1ccccc1OC)C3=O`, the GI50 is 0.186 µM and the TGI was found to be 0.391 µM.

In the case of `O=C(/C=C/c1ccccc1)Nc1ncc(Cc2ccccc2Cl)s1`, the GI50 is 0.365 µM and the TGI is above 100 µM.

With `CN(c1ccc(NC(=O)Nc2c(Cl)cccc2Cl)cc1)c1ccnc(Nc2cccc(CS(C)(=O)=O)c2)n1`, the GI50 was 1.53 µM and the TGI is above 14.4 µM.

Consider `CCCCCCCCCCCCCCCCCCOC[C@H](COP(=O)(O)O[C@H]1[C@H](O)[C@@H](O)[C@H](O)C[C@H]1O)OC`, for which the GI50 is > 100 µM and 18.3 µM; the TGI is > 100 µM and 33.9 µM.

`COCCOC(=O)C1=C(O)c2ccccc2S(=O)(=O)N1C`: the TGI was above 100 µM.

Take `CC(C)CNc1nc(-c2ccccc2Cl)nc2ccccc12`: the GI50 is 12.4 µM and the TGI worked out at 25.9 µM.

With `CN(C)CCOc1ccc([N+](=O)[O-])c2cccnc12`, the TGI was above 100 µM.

For the compound `C=C(C)[C@@H]1CC[C@]2(COCCCN)CC[C@]3(C)[C@H](CC[C@@H]4[C@@](C)(CCCNCCCN)[C@H](C(=C)C)CC[C@]43C)[C@@H]12`, the GI50 is 1.66 µM and the TGI worked out at 3.12 µM.

In the case of `COc1ccc2c(c1)C(=O)/C(=C/c1cccc(OCC(=O)c3ccccc3)c1)O2`, the GI50 is 1.95 µM and the TGI was 4.8 µM.

With `O=C1NC(=S)S/C1=C/c1ccc2c(c1)OCO2`, the GI50 was 23 µM and the TGI is above 100 µM.

`O=C(O)CCCc1ccc2ccc3ccccc3c2c1`: the TGI was above 100 µM.

`CSC(SC)(C(=O)O)c1cc(-c2c(Cl)cccc2Cl)no1` had a TGI above 100 µM.

Another assay concerns M14 melanoma. Kind of assay: growth of human tumour cells (NCI), 48 h.
In the case of `C[C@]12CCc3sc(Nc4ccc(OC(F)(F)F)cc4)nc3C1=CC[C@@H]1[C@@H]2CC[C@]2(C)C(=O)CC[C@@H]12`, the GI50 was 3.29 µM and the TGI stood at 8.72 µM.

As for `CCN1C(=O)c2ccc3c4c(ccc(c24)C1=O)C(=O)N(CCCNCc1ccccc1OC)C3=O`, the GI50 was 0.69 µM and the TGI was 2.1 µM.

Regarding `O=C(/C=C/c1ccccc1)Nc1ncc(Cc2ccccc2Cl)s1`, the GI50 was 0.236 µM and the TGI was above 100 µM.

Consider `CN(c1ccc(NC(=O)Nc2c(Cl)cccc2Cl)cc1)c1ccnc(Nc2cccc(CS(C)(=O)=O)c2)n1`, for which the GI50 was 2.64 µM and the TGI was 11.6 µM.

Turning to `CCCCCCCCCCCCCCCCCCOC[C@H](COP(=O)(O)O[C@H]1[C@H](O)[C@@H](O)[C@H](O)C[C@H]1O)OC`, the GI50 was > 100 µM and 12 µM; the TGI was > 100 µM and 24.7 µM.

Regarding `CN(C)C/C=C/C(=O)Nc1ccc(C(=O)N[C@@]2(C)CCC[C@@H](Nc3ncc(Cl)c(-c4c[nH]c5ccccc45)n3)C2)nc1`, the GI50 was below 0.01 µM and the TGI turned out to be 0.0282 µM.

In turn, `COCCOC(=O)C1=C(O)c2ccccc2S(=O)(=O)N1C` returned a TGI above 100 µM.

Turning to `CC(C)CNc1nc(-c2ccccc2Cl)nc2ccccc12`, the GI50 is 19.5 µM and the TGI came to 35.1 µM.

Turning to `CN(C)CCOc1ccc([N+](=O)[O-])c2cccnc12`, the TGI was above 100 µM.

These data come from PubChem BioAssay (NCI).
